Series [1] deals with T1, endogenous CETP from serum (Homo sapiens, UniProt P11597).
T1 construct: yielding a concentration of approximately 15 nM endogenous CETP in the assay; from tissue; host or cells: human serum
T1 sequence (P11597 18-493): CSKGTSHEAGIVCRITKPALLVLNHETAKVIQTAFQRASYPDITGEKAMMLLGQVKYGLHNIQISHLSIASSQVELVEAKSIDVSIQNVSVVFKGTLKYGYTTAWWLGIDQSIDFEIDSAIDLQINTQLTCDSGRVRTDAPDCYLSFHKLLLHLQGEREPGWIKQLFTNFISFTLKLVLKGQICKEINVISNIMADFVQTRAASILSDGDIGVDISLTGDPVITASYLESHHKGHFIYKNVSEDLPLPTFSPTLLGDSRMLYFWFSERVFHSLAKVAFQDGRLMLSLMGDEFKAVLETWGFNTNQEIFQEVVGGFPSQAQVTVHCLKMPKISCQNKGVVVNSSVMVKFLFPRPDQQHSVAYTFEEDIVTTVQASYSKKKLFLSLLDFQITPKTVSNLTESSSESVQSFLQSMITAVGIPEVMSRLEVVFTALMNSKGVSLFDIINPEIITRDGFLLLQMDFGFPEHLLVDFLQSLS
Nature of the series: RTA assay in 95% human serum (in vitro radioactive assay of CETP-catalyzed CE and TG transfer, endogenous CETP). The series is classed as biochemical. Conditions: read-out: IC50 (nM) RTA with 95% HS. Here is the method:
In Vitro Radioactive Assays of CETP-Catalyzed CE and TG Transfer (RTA Assay)
Reagents and sources are: [3H] cholesteryl oleate (GE #TRK.886), [3H] Triolein (Perkin-Elmer NET-431), Butylated hydroxyl toluene (Aldrich, #D4740-4), DOPC (Sigma, # P6354), Sodium Bromide (Fisher scientific #S255-500), PEG 8000 (Fisher, #BP233-1), and human HDL (Intracel Corp #RP-036).
An in vitro assay for determining IC50's to identify compounds that inhibit CETP transfer activity is performed based on a modification of a published method (Morton and Zilversmit, (1981) A plasma inhibitor of triglyceride and cholesteryl ester transfer activities, J. Biol. Chem. 256(23), 11992-11995). The ability of inhibitors to alter CETP activity is performed using two different assays: one using recombinant CETP and one using an endogenous plasma source of CETP. Both assays measure the transfer of [3H] cholesteryl oleate or [3H] triolein from exogenous LDL to HDL.
Radiolabeled donor particles are generated by first combining 100 μl of 200 μM butylated hydroxyl toluene in CHCl3, 216 μL of 21.57 mM DOPC in EtOH, and either 500 μCi [3H]-triolein (Perkin Elmer #NET-431) or 500 μCi [3H]-cholesteryl oleate (GE #TRK886) in a glass tube. Reagents are mixed, dried under nitrogen, and then resuspended in 2 mL of 50 mM Tris, 27 μM EDTA at pH 7.4. After a brief vortex, the solution is sonicated until clear and mixed with 20 mL of fresh human serum. The mixture is incubated overnight at 37° C. The [3H] labeled LDL substrate is separated at 1.063 g/ml density by sequential ultracentrifugal flotation in NaBr according to the method of Havel, Eder, et al., 1955, and Chapman, Goldstein, et al., 1981. Once isolated the particles are dialyzed 3× in CETP buffer (50 mM Tris, pH 7.4, 100 mM NaCl, 1 mM EDTA). Human HDL is purchased from Intracel and used as the acceptor particles.
Transfer assays are performed in a 96-well v-bottom polypropylene plate. For the RTA using recombinant CETP (2% RTA), an assay cocktail is prepared with the final concentrations 128 μg/mL HDL, 20 nM rCETP, 2% human serum, and 1×CETP buffer. 1 μL of each test compound diluted in DMSO is added to 47 μL of assay cocktail per well and incubated at 37° C. for 1 hour. To initiate the transfer reaction, 2 μL radiolabeled LDL is added. After an additional 60 min of incubation at 37° C., the transfer action is terminated by precipitation of LDL with an equal volume of 20% WN PEG 8000. The plates are centrifuged at 2000 rpm for 30 minutes at 4° C. A 40 μL aliquot of the HDL-containing supernatant is transferred to a Packard Optiplate™ with 200 μL of MicroScint™ 20. After mixing, plates are counted by liquid scintillation. Counts present in the supernatant for blanks (wells containing only HDL acceptor, CETP buffer and DMSO) are subtracted from those containing test compounds and used to correct for non-specific transfer.
For the transfer assay using endogenous CETP from serum (95% RTA), the same procedure is used except that human serum is added such that a final concentration of serum of 95% of the total assay volume is achieved, yielding a concentration of approximately 15 nM endogenous CETP in the assay. This is then combined with HDL and CETP buffer and the reaction proceeds as above and is terminated as described.
Comparison of the counts of samples with inhibitors to an uninhibited (DMSO only) positive control yield a percent inhibition. A plot of percent inhibition vs. log of inhibitor concentration, fit to a Sigmoidal 4 parameter equation is used to calculate IC50.
Starting materials are commercially available or are made using known procedures or as shown below. The examples may be synthesized according to the general schemes provided below and by using the synthetic intermediates that are described. The data reported for the examples below were obtained using the RTA assay in 95% human serum.

The conditions of series [2]: anacetrapib with baseline statin therapy compared with patients treated with just a statin; cited from earlier work.
For series [3] the following is noted: Phase III outcomes trial, cited from earlier work.
The conditions of series [4]: torcetrapib and atorvastatin concomitantly compared with atorvastatin alone; cited from earlier work.

Consider `COc1ncc(-c2ccc(C(=O)O)cc2C)cc1-c1ccc(C(F)(F)F)cc1CC1=NO[C@H](c2cc(C(F)(F)F)cc(C(F)(F)F)c2)[C@@H]1C` [Example 14, 4-(5-(2-(((4R,5S)-5-(3,5-bis(trifluoromethyl)phenyl)-4-methyl-4,5-dihydroisoxazol-3-yl)methyl)-4-(trifluoromethyl)phenyl)-6-methoxypyridin-3-yl)-3-methylbenzoic acid], for which the IC50 (as a rule, the point on the concentration scale where inhibition reaches its midpoint) in series [1] was 169 nM.

With `COc1cc(F)c(C(C)C)cc1-c1ccc(C(F)(F)F)cc1CN1C(=O)O[C@H](c2cc(C(F)(F)F)cc(C(F)(F)F)c2)[C@@H]1C` [anacetrapib], in series [2], the “decrease of LDL-C” value was 40% and the “increase of HDL-C” value is reported as 138%.

In the case of `CCC(CC)CC1(C(=O)Nc2ccccc2SC(=O)C(C)C)CCCCC1` [dalcetrapib], the “clinical benefit (interim data)” value in series [3] (terminated early) is on record as “did not show a clinical benefit”. For the same molecule, the safety issues entry in series [3] is reported as “no safety issues detected”.

Turning to `CCOC(=O)N1c2ccc(C(F)(F)F)cc2[C@@H](N(Cc2cc(C(F)(F)F)cc(C(F)(F)F)c2)C(=O)OC)C[C@H]1CC` [torcetrapib], in series [4], the mortality entry is on record as “higher incidence of mortality”.

Source of the values: patent publication US10011572B2, “Monocyclic isoxazolines as inhibitors of cholesterol ester transfer protein” (Merck Sharp & Dohme Corp., priority 2014, dated 2018).
